The target in one test is Carbonic anhydrase 2 (Homo sapiens, UniProt P00918). Nature of the test: Inhibition of human carbonic anhydrase 2 assessed as inhibitory constant incubated for 6 hrs by stopped-flow CO2 hydration assay.
For another test, the target named is Carbonic anhydrase 1 (Homo sapiens, UniProt P00915). The test is described as follows: Inhibition of human carbonic anhydrase 1 assessed as inhibitory constant incubated for 6 hrs by stopped-flow CO2 hydration assay.
A further test deals with Carbonic anhydrase 9 (Homo sapiens, UniProt Q16790). Nature of the test: Inhibition of human carbonic anhydrase 9 assessed as inhibitory constant incubated for 6 hrs by stopped-flow CO2 hydration assay.

SMILES strings stand for the structures.

Sequence of Carbonic anhydrase 1 (P00915 whole entry): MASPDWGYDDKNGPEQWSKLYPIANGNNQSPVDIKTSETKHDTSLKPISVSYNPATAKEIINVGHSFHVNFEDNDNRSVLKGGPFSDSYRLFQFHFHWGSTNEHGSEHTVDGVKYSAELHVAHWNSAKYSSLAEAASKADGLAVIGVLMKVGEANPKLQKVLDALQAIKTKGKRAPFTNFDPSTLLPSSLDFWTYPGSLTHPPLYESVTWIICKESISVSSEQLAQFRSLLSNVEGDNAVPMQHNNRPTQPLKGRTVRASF

As a reminder, the Ki is a dissociation constant, usually derived from enzyme kinetics or from competition with a known ligand. On to `COC(=O)C1=Cc2cc(C(=O)OC)ccc2OC(=O)C1`, for which the Ki on Carbonic anhydrase 2 is over 100 µM; on Carbonic anhydrase 1 it was over 100 µM; at Carbonic anhydrase 9 it was 39.3 nM.
In the case of `CCN(CC)c1ccc2c(c1)OC(=O)CC(C(=O)OC)=C2`, the values for the Ki at Carbonic anhydrase 2, at Carbonic anhydrase 1 and on Carbonic anhydrase 9 were over 100 µM, over 100 µM and 93.4 nM, respectively.
Take `COC(=O)C1=Cc2ccc(Cl)cc2OC(=O)C1`: the results for the Ki at Carbonic anhydrase 2, at Carbonic anhydrase 1 and at Carbonic anhydrase 9 were over 100 µM, over 100 µM and 78 nM, respectively.
In the case of `COC(=O)C1=Cc2cc(C)ccc2OC(=O)C1`, the inhibition constant Ki on Carbonic anhydrase 2 is over 100 µM; at Carbonic anhydrase 1, over 100 µM; at Carbonic anhydrase 9, 71.7 nM.
Take `COC(=O)C1=Cc2ccccc2OC(=O)C1`: the Ki was over 100 µM on Carbonic anhydrase 2, over 100 µM on Carbonic anhydrase 1 and 254 nM at Carbonic anhydrase 9.
Turning to `COC(=O)C1=Cc2ccc(C)cc2OC(=O)C1`, the Ki on Carbonic anhydrase 2 is over 100 µM; on Carbonic anhydrase 1, over 100 µM; at Carbonic anhydrase 9 it was 171 nM.
Regarding `COC(=O)C1=Cc2ccc(OC)cc2OC(=O)C1`, the Ki at Carbonic anhydrase 2 is over 100 µM; on Carbonic anhydrase 1 it was over 100 µM; on Carbonic anhydrase 9 it was 83.8 nM.
Regarding `COC(=O)C1=Cc2ccc3ccccc3c2OC(=O)C1`, the Ki at Carbonic anhydrase 2 is over 100 µM; at Carbonic anhydrase 1 it was over 100 µM; on Carbonic anhydrase 9 it was 303 nM.
In the case of `COC(=O)C1=Cc2cc(Cl)ccc2OC(=O)C1`, the values for the inhibition constant (Ki) on Carbonic anhydrase 2, on Carbonic anhydrase 1 and on Carbonic anhydrase 9 were 76.2 µM, over 100 µM and 20 nM, respectively.
The like results for `COC(=O)C1=Cc2cccc(OC)c2OC(=O)C1` were, in that order, over 100 µM, over 100 µM and 46.3 nM.
In the same order, the values of `COC(=O)C1=Cc2cc(C(C)(C)C)ccc2OC(=O)C1` are 85.7 µM, over 100 µM and 37.3 nM.
The like results for `COC(=O)C1=Cc2cc(OC)ccc2OC(=O)C1` were, in that order, 66.8 µM, over 100 µM and 40.2 nM.

(Values after ChEMBL document CHEMBL4619750, “Benzoxepinones: A new isoform-selective class of tumor associated carbonic anhydrase inhibitors” (Bioorg Med Chem, 2020).)
